These results are taken from US20070281909A1, “Creatine phosphate prodrugs, compositions and uses thereof” (XenoPort, Inc., priority 2006, published 2007).

Where two headings read alike, the source gives them in different places.

For data set [1] the following is noted: cited from earlier work.
Data set [2] has as its system HEK cells expressing SMVT. Kind of data set: Effect of treatment on the creatine kinase system (intracellular creatine phosphate, ATP, creatine). Particulars: 100 μM, relative to buffer. The data set is classed as cell-based, human.
The conditions of data set [3]: animals fed a diet containing up to 1%; cited from earlier work.
The test system of a further data set is H9C2 cells. In kind it is cell-based, rat.
The conditions of data set [4]: cited from earlier work. This is another data set of the same source.
A further data set has as its system HEK293 cells. Put plainly: Restoration of cellular energy homeostasis following sodium azide treatment. As to conditions: azide 20 minutes, then compound or control media 20 minutes; FIG. 12. In kind it is cell-based, human.
The conditions of data set [5]: healthy volunteers, oral creatine administration; cited from earlier work.

Consider `CN(CC(=O)O)C(=N)NP(=O)(O)O` [Creatine Phosphate, creatine phosphate], for which the Adverse side effects entry in data set [1] (patients with cardiac diseases, intravenous injection up to 8 gm/day) is reported as “without adverse side effects”. Also, in data set [2] (After 1 Hour), the “Percent Increase in Intracellular Concentrations, ATP” value (“Percent Increase … ATP” below) was found to be 27%; the “Percent Increase in Intracellular Concentrations, Creatine” value is on record as −6%; the “Percent Increase in Intracellular Concentrations, Creatine Phosphate” value (“Percent Increase … Creatine Phosphate” below) amounted to 15%. For the same compound, in data set [2] (After 3 Hours), the “Percent Increase … ATP” value is 10%; the “Percent Increase in Intracellular Concentrations, Creatine” value stood at 0%; the “Percent Increase … Creatine Phosphate” value stood at 5%.
Regarding `NC1=NCCN1CC(=O)O` [cyclocreatine], the Adverse effects entry in data set [3] is given as “do not exhibit adverse effects”.
As to `CN(CC(=O)O)C(=N)N.O` [creatine monohydrate], the Adverse side effects entry in data set [1] (athletes and body builders, 2-3 gm/day) is given as “without adverse side effects”.
Take `CN(CC(=O)O)C(=N)N` [Creatine, creatine]: in data set [2] (After 1 Hour), the “Percent Increase … ATP” value is recorded as 5%; the “Percent Increase in Intracellular Concentrations, Creatine” value came out at 8%; the “Percent Increase … Creatine Phosphate” value was determined as 26%. Also, in data set [2] (After 3 Hours), the “Percent Increase … ATP” value is recorded as −5%; the “Percent Increase in Intracellular Concentrations, Creatine” value was found to be 40%; the “Percent Increase … Creatine Phosphate” value was found to be 30%. Besides, the “Protection against 3-NP toxicity (ATP luminescence)” value with H9C2 cells is “not”. In addition, the “Duration of increases in tissue creatine phosphate levels” value in data set [4] (following oral creatine supplementation) is above 14 days. Also, the “Overall increase in creatine phosphate levels by creatine supplementation” value in data set [4] (supplementation typically takes weeks) is given as below 50%. In addition, the “Reversal of azide-induced ATP depletion” value in the data set with HEK293 cells is “not protective”. Besides, in data set [5], the “Increase of cerebral creatine phosphate” value was “about 10%”.
